Tested on: Aspergillus niger ATCC 6275
Test: Determination of synergistic antimicrobial activity in MIC (96-well microplate, optical density at 620 nm)
Assay type: cell-based
Conditions: for microbial growth percentage: 32.5° C., 24 to 48 hours
Description: FIC Index=(MICa with B/MICa)+(MICb with A/MICb)
with: • MICa with B: minimum concentration of product A in the combination A+B which makes it possible to obtain an inhibitory effect. • MICb with A: minimum concentration of product B in the combination A+B which makes it possible to obtain the inhibitory effect. • MICa: minimum inhibitory concentration of product A alone. • MICb: minimum inhibitory concentration of product B alone.
As regards the combinations tested, MICa with b and MICb with a are the respective concentrations of A and of B in the combinations which make it possible to obtain a microbial growth percentage of less than or equal to 25%.
When the FIC index value is less than or equal to 1, it is considered that the combination of test compounds has a synergistic effect.
The microbial strain Aspergillus niger ATCC 6275, and a double-concentration Sabouraud broth liquid culture medium supplemented with polyoxyethylenated (20 OE) sorbitan monopalmitate (Tween 40 from Croda) and Phytagel® BioReagent were used (i.e. a mixture of 5 g of Phytagel+0.6 g Tween 40+60 g of Sabouraud broth).
A 96-well microplate at an incubation temperature of 32.5° C. is used.
The incubation time of the microplate is from 24 to 48 hours aerobically.
A 10% (weight/volume) stock solution was prepared by mixing 1 g of compound in 9 ml of aqueous 1‰ agar solution. Successive dilutions were made with the 1‰ agar solution. • Test of compounds A and B alone
50 μL of each of the daughter solutions obtained containing compound A or B are added to the microplate wells. 100 μL of Sabouraud liquid nutrient broth inoculated with the strain Aspergillus niger and 50 μL of aqueous 1‰ agar solution are also added thereto. • Test of compounds A and B as a mixture
50 μL of each of the daughter solutions obtained containing compound A and 50 μL of each of the daughter solutions obtained containing compound B are added to the microplate wells. 100 μL of Sabouraud liquid nutrient broth inoculated at double concentration with the strain Aspergillus niger are also added thereto.
A positive microbial growth control was also prepared. The positive microbial growth control corresponds to a mixture of 100 μL of aqueous 1‰ agar solution with 100 μL of Sabouraud liquid nutrient broth inoculated at double concentration with the strain Aspergillus niger in the absence of compounds A and B.
An absorbance control was performed in parallel on compounds A and B alone. This control corresponds to 100 μL of double concentration sterile Sabouraud liquid nutrient broth+100 μL of double concentration compound A or B.
In the three cases (absorbance control, growth control and test), the final volume present in each of the microplate wells is 200 μL.
In the two cases (test and control), the inoculum represents the concentration of the strain Aspergillus niger present in the final volume of the wells (200 μL) and is between 2 and 6×10^5 cfu/ml of Aspergillus niger.
The minimum inhibitory concentration (MIC) of each compound A and B alone and in combination was determined in a known manner by means of optical density measurements at a wavelength of 620 nm.

[1] = first concentration giving growth <= 25%

Compound: CCOc1cc(CCC(C)=O)ccc1O [A, 4-(3-ethoxy-4-hydroxyphenyl)butan-2-one]
- microbial growth percentage (0.0625 weight % A alone (0 B)): 79%
- microbial growth percentage (0.125 weight % A alone (0 B)): 41%
- microbial growth percentage (0.25 weight % A alone (0 B)): 5%
- % MIC of A alone [1]: 0.25%

Compound: OCC(O)COc1ccc(Cl)cc1 (centres unmarked) [B, 3-(4-chlorophenoxy)-1,2-propanediol]
- microbial growth percentage (0.0125 weight % B alone (0 A)): 71%
- microbial growth percentage (0.25 weight % B alone (0 A)): 38%
- microbial growth percentage (0.5 weight % B alone (0 A)): 1%
- % MIC of B alone [1]: 0.5%
